# Data as given in patent publication US7709478B2, “Acylated 6,7,8,9-tetrahydro-5H-benzocycloheptenyl amines and their use as pharmaceutical agents” (sanofi-aventis Deutschland GmbH, priority 2001, dated 2010).
# pEC50: −log10 of the molar value.
# System: eNOS promoter
# Test: Activation of eNOS transcription (eNOS promoter-luciferase reporter gene assay)
# Format: cell-based, human
# Settings: 18 h incubation; for pEC50: EC50 of transcription induction ratio vs compound concentration, determined graphically, human endothelial cell line stably transfected with eNOS promoter-luciferase construct; for maximal fold induction / TIR(max): maximum transcription induction ratio (luciferase activity with compound / solvent alone), human endothelial cell line with eNOS promoter-luciferase construct; for maximal fold induction: read-out: TIR(max)
# Method: Measurement of Activation of eNOS Transcription
# Activation of eNOS transcription was measured as described in detail in Li et al. “Activation of protein kinase C alpha and/or epsilon enhances transcription of the human endothelial nitric oxide synthase gene”, Mol. Pharmacol. 1998; 53: 630-637.
# Briefly, a 3.5 kB long fragment 5′ of the starting codon of the eNOS gene was cloned, sequenced and cloned in firefly luciferase expression plasmids to monitor activation of the eNOS promoter by reporter gene activity. A human endothelial cell line stable transfected and expressing this promoter-reporter construct was used for compound testing. Cells were incubated for 18 h with compounds.
# All compounds were dissolved in sterile DMSO. A final concentration of 0.5% DMSO in complete medium was allowed. Induction of reporter gene expression in these cells was measured using a standard luciferase assay system (Promega, Cat. No E150) according to the manufacturer's instructions. Luciferase induction in cells incubated with compounds were compared to those incubated with solvent alone. The ratio of both activities (transcription induction ratio, TIR) was plotted as a function of compound concentration. Typically, TIR values started at low concentrations at a ratio of 1, indicating no compound effect, and extended up to a maximum TIR value TIR(max) which indicates the increase of the eNOS transcription. EC50 values of transcription induction ratios as a function of compound concentration were determined graphically.
Structure (SMILES),pEC50,maximal fold induction,TIR(max)
"O=C(NC1CCCc2ccccc2C1)c1cccc(N2CCCCC2)c1 (stereo not shown) [Compound 106, 3-PIPERIDIN-1-YL-N-(6,7,8,9-TETRAHYDRO-5H-BENZOCYCLOHEPTEN-6-YL)-BENZAMIDE]",5.32,2.5,–
"O=C(NC1CCCc2ccccc2C1)c1ccnc(N2CCCC2)c1 (single isomer, unassigned; (+)) [Compound 149, (+)-2-PYRROLIDIN-1-YL-N-(6,7,8,9-TETRAHYDRO-5H-BENZOCYCLOHEPTEN-6-YL)-ISONICOTINAMIDE]",5.47,3,–
"O=C(NC1CCCc2ccccc2C1)c1ccc(F)cc1 (single isomer, unassigned; (+)) [Compound 1b, (+)-4-Fluoro-N-(6,7,8,9-tetrahydro-5H-benzocyclohepten-6-yl)-benzamide]",5.22,–,2.9
"O=C(NC1CCCc2ccccc2C1)c1cnc2c(c1)CCCC2 (stereo not shown) [Compound 134, 5,6,7,8-TETRAHYDRO-QUINOLINE-3-CARBOXYLIC ACID (6,7,8,9-TETRAHYDRO-5H-BENZOCYCLOHEPTEN-6-YL)-AMIDE]",5.52,3.5,–
"CCSc1ncc(C(=O)NC2CCCc3ccccc3C2)c(N)n1 (stereo not shown) [Compound 74, 4-AMINO-2-ETHYLSULFANYL-PYRIMIDINE-5-CARBOXYLIC ACID (6,7,8,9-TETRAHYDRO-5H-BENZOCYCLOHEPTEN-6-YL)-AMIDE]",4.47,3.1,–
"Cc1cnc(C(=O)NC2CCCc3ccccc3C2)cn1 (single isomer, unassigned) [Compound 33, 5-METHYL-PYRAZINE-2-CARBOXYLIC ACID (6,7,8,9-TETRAHYDRO-5H-BENZOCYCLOHEPTEN-6-YL)-AMIDE]",5.48,–,2.6

# These reach a higher pEC50. Values come first.
pEC50,Structure (SMILES),maximal fold induction,TIR(max)
5.92,"O=C(NC1CCCc2ccccc2C1)c1cnn(-c2ccc(Cl)cc2)c1C(F)(F)F (stereo not shown) [Compound 14, 1-(4-CHLORO-PHENYL)-5-TRIFLUOROMETHYL-1H-PYRAZOLE-4-CARBOXYLIC ACID (6,7,8,9-TETRAHYDRO-5H-BENZOCYCLOHEPTEN-6-YL)-AMIDE]",1.7,–
6.45,"O=C(N[C@H]1CCCc2ccccc2C1)c1ccc2nc[nH]c2c1 [Compound 126, (S)-3H-BENZOIMIDAZOLE-5-CARBOXYLIC ACID (6,7,8,9-TETRAHYDRO-5H-BENZOCYCLOHEPTEN-6-YL)-AMIDE]",2.9,–
6.96,"COc1ccc(C(=O)N[C@H]2CCCc3ccccc3C2)cn1 [Compound 130, (S)-6-METHOXY-N-(6,7,8,9-TETRAHYDRO-5H-BENZOCYCLOHEPTEN-6-YL)-NICOTINAMIDE]",3.1,–
7.08,"COc1ccc(C(=O)NC2CCCc3ccccc3C2)cn1 (stereo not shown) [Compound 102, 6-METHOXY-N-(6,7,8,9-TETRAHYDRO-5H-BENZOCYCLOHEPTEN-6-YL)-NICOTINAMIDE]",2.9,–
7.22,"O=C(NC1CCCc2ccccc2C1)c1cnn(-c2ccccc2)c1C(F)(F)F (single isomer, unassigned) [Compound 34, 1-PHENYL-5-TRIFLUOROMETHYL-1H-PYRAZOLE-4-CARBOXYLIC ACID (6,7,8,9-TETRAHYDRO-5H-BENZOCYCLOHEPTEN-6-YL)-AMIDE]",2.8,–
7.28,"CN(C)c1ccc(C(=O)NC2CCCc3ccccc3C2)cn1 (stereo not shown) [Compound 81, 6-DIMETHYLAMINO-N-(6,7,8,9-TETRAHYDRO-5H-BENZOCYCLOHEPTEN-6-YL)-NICOTINAMIDE]",3.3,–
8.22,"CNc1nc(C)ccc1C(=O)NC1CCCc2ccccc2C1 (single isomer, unassigned) [Compound 124, 6-METHYL-2-METHYLAMINO-N-(6,7,8,9-TETRAHYDRO-5H-BENZOCYCLOHEPTEN-6-YL)-NICOTINAMIDE]",–,2.9
8.70,"Nc1nc(Cl)ccc1C(=O)N[C@H]1CCCc2ccccc2C1 [Compound 128, (S)-2-AMINO-6-CHLORO-N-(6,7,8,9-TETRAHYDRO-5H-BENZOCYCLOHEPTEN-6-YL)-NICOTINAMIDE]",3.1,–
